Assay results as given in ChEMBL document CHEMBL2396640, “Exploring DOXP-reductoisomerase binding limits using phosphonated N-aryl and N-heteroarylcarboxamides as DXR inhibitors” (Bioorg Med Chem, 2013).
Calls of active or inactive are those of the source. The rule behind the calls is not given here.

test system: Escherichia coli; assay: Inhibition of Escherichia coli DXR using DOXP as substrate assessed as conversion of NADPH to NADP at 250 uM preincubated for 5 mins relative to control

Row | Structure (SMILES) | inhibition
1 | CCOP(=O)(CC(=O)Nc1cccc(OC)c1)OCC | 11%
2 | CCOP(=O)(CC(=O)Nc1cccc(Br)c1)OCC | 16.3%
3 | CCOP(=O)(CC(=O)Nc1cccc(CO)c1)OCC | 40.4%
4 | CCOP(=O)(CC(=O)Nc1cccc(C#N)c1)OCC | 21.9%
5 | CCOP(=O)(CCC(=O)Nc1cccc(O)c1)OCC | 23.1%
6 | CCOP(=O)(CC(=O)Nc1cccc(O)c1)OCC | 44.6%

Next, values leading:

Row | inhibition | Structure (SMILES)
7 | 17.1% | CCOP(=O)(CCC(=O)Nc1cccc(CO)c1)OCC
8 | 34.4% | O=C(CP(=O)(O)O)Nc1cccc(O)c1
9 | 23.3% | CCOP(=O)(CCC(=O)Nc1cccc(OC)c1)OCC
10 | 8.7% | COc1cccc(NC(=O)CCP(=O)(O)O)c1
11 | 8.2% | N#Cc1cccc(NC(=O)CP(=O)(O)O)c1
12 | 16% | O=C(CCP(=O)(O)O)Nc1cccc(CO)c1
13 | 23.7% | O=C(CCP(=O)(O)O)Nc1cccc(O)c1
14 | 31.9% | COc1cccc(NC(=O)CP(=O)(O)O)c1
15 | 22.3% | O=C(CP(=O)(O)O)Nc1cccc(Br)c1

test system: Escherichia coli; assay: Inhibition of Escherichia coli DXR using DOXP as substrate assessed as conversion of NADPH to NADP at 250 uM preincubated for 5 mins measured after 10 mins relative to control

Row | Structure (SMILES) | inhibition
16 | CCOP(=O)(CC(=O)Nc1cccc(Br)c1)OCC | 21.4%
17 | CCOP(=O)(CC(=O)Nc1cccc(C#N)c1)OCC | 11.9%
18 | CCOP(=O)(CCC(=O)Nc1cccc(O)c1)OCC | 33.5%
19 | CCOP(=O)(CC(=O)Nc1cccc(O)c1)OCC | 24.4%

Now from value to compound:

Row | inhibition | Structure (SMILES)
20 | 17.9% | CCOP(=O)(CCC(=O)Nc1cccc(CO)c1)OCC
21 | 43.9% | O=C(CP(=O)(O)O)Nc1cccc(O)c1
22 | 14.1% | CCOP(=O)(CCC(=O)Nc1cccc(OC)c1)OCC
23 | 20% | N#Cc1cccc(NC(=O)CP(=O)(O)O)c1
24 | 26.8% | O=C(CCP(=O)(O)O)Nc1cccc(CO)c1
25 | 49.2% | O=C(CCP(=O)(O)O)Nc1cccc(O)c1
26 | 17.8% | COc1cccc(NC(=O)CP(=O)(O)O)c1
27 | 0.8% | CCOP(=O)(CCCC(=O)Nc1cccc(O)c1)OCC
28 | 26.8% | O=C(CP(=O)(O)O)Nc1cccc(Br)c1
29 | 0.7% | O=C(CCCP(=O)(O)O)Nc1cccc(O)c1

test system: Escherichia coli; assay: Binding affinity to Escherichia coli DXR at 20 uM by STD-NMR analysis

Row | Structure (SMILES) | Activity
30 | CCOP(=O)(CC(=O)Nc1nccs1)OCC | Active
31 | O=C(CP(=O)(O)O)Nc1nccs1 | Active
32 | O=C(CP(=O)(O)O)NCc1ccco1 | Active
33 | CCOP(=O)(CCC(=O)NCc1ccco1)OCC | Active
34 | CC(=O)c1sc(NC(=O)CP(=O)(O)O)nc1C | Active
35 | CC(=O)c1sc(NC(=O)CCP(=O)(O)O)nc1C | Active
36 | N#Cc1cccc(NC(=O)CCCP(=O)(O)O)c1 | inactive
37 | CCOP(=O)(CCC(=O)Nc1ccccn1)OCC | Active
38 | O=C(CCCCP(=O)(O)O)Nc1cccc(O)c1 | inactive
39 | CCOP(=O)(CCC(=O)Nc1ccon1)OCC | Active
40 | CCOP(=O)(CC(=O)Nc1nc(C)c(C(C)=O)s1)OCC | Active
41 | O=C(CP(=O)(O)O)Nc1ccccn1 | Active
42 | CCOP(=O)(CC(=O)NCc1ccco1)OCC | Active
43 | O=C(CCCCP(=O)(O)O)Nc1cccc(Br)c1 | inactive
44 | O=C(CCP(=O)(O)O)Nc1ccccn1 | Active
45 | O=C(CP(=O)(O)O)Nc1ccon1 | Active
46 | CCOP(=O)(CC(=O)Nc1ccccn1)OCC | Active
47 | CCOP(=O)(CC(=O)Nc1ccon1)OCC | Active
48 | CCOP(=O)(CCC(=O)Nc1nc(C)c(C(C)=O)s1)OCC | Active
49 | O=C(CCP(=O)(O)O)NCc1ccco1 | Active
50 | O=C(CCP(=O)(O)O)Nc1ccon1 | Active
51 | CCOP(=O)(CCC(=O)Nc1nccs1)OCC | Active
52 | O=C(CCP(=O)(O)O)Nc1nccs1 | Active

test system: Plasmodium falciparum; assay: Activation of Plasmodium falciparum DXR using DOXP as substrate assessed as conversion of NADPH to NADP at 250 uM preincubated for 5 mins relative to control

Row | Structure (SMILES) | Activity
53 | CCOP(=O)(CC(=O)Nc1cccc(OC)c1)OCC | Active
54 | CCOP(=O)(CC(=O)Nc1cccc(Br)c1)OCC | Active
55 | CCOP(=O)(CCC(=O)Nc1cccc(O)c1)OCC | Active

Now from value to compound:

Row | Activity | Structure (SMILES)
56 | Active | CCOP(=O)(CCC(=O)Nc1cccc(CO)c1)OCC
57 | Active | CCOP(=O)(CCC(=O)Nc1cccc(OC)c1)OCC
58 | Active | COc1cccc(NC(=O)CCP(=O)(O)O)c1
59 | Active | N#Cc1cccc(NC(=O)CP(=O)(O)O)c1

test system: Plasmodium falciparum; assay: Inhibition of Plasmodium falciparum DXR using DOXP as substrate assessed as conversion of NADPH to NADP at 250 uM preincubated for 5 mins relative to control

Row | Structure (SMILES) | inhibition
60 | CCOP(=O)(CC(=O)Nc1cccc(CO)c1)OCC | 40.7%
61 | CCOP(=O)(CC(=O)Nc1cccc(C#N)c1)OCC | 4.8%
62 | CCOP(=O)(CC(=O)Nc1cccc(O)c1)OCC | 12%

Other lines, results leading:

Row | inhibition | Structure (SMILES)
63 | 45.2% | O=C(CP(=O)(O)O)Nc1cccc(O)c1
64 | 10.9% | O=C(CCP(=O)(O)O)Nc1cccc(CO)c1
65 | 1.1% | O=C(CCP(=O)(O)O)Nc1cccc(O)c1
66 | 40.8% | COc1cccc(NC(=O)CP(=O)(O)O)c1
67 | 42% | O=C(CP(=O)(O)O)Nc1cccc(Br)c1

test system: Escherichia coli; assay: Activation of Escherichia coli DXR using DOXP as substrate assessed as conversion of NADPH to NADP at 500 uM preincubated for 5 mins

Row | Structure (SMILES) | Activity
68 | CCOP(=O)(CCC(=O)Nc1ccccn1)OCC | Active
69 | O=C(CP(=O)(O)O)Nc1ccccn1 | Active

test system: Escherichia coli; assay: Inhibition of Escherichia coli DXR using DOXP as substrate assessed as conversion of NADPH to NADP at 500 uM preincubated for 5 mins

Row | Structure (SMILES) | inhibition
70 | CCOP(=O)(CC(=O)Nc1nccs1)OCC | 28.9%
71 | O=C(CP(=O)(O)O)Nc1nccs1 | 7.4%
72 | O=C(CP(=O)(O)O)NCc1ccco1 | 30%
73 | CCOP(=O)(CCC(=O)NCc1ccco1)OCC | 0.2%
74 | CC(=O)c1sc(NC(=O)CP(=O)(O)O)nc1C | 16.6%
75 | CC(=O)c1sc(NC(=O)CCP(=O)(O)O)nc1C | 0%
76 | CCOP(=O)(CCC(=O)Nc1ccon1)OCC | 0%
77 | CCOP(=O)(CC(=O)Nc1nc(C)c(C(C)=O)s1)OCC | 21.6%
78 | CCOP(=O)(CC(=O)NCc1ccco1)OCC | 67.7%
79 | O=C(CCP(=O)(O)O)Nc1ccccn1 | 0%
80 | O=C(CP(=O)(O)O)Nc1ccon1 | 12.2%
81 | CCOP(=O)(CC(=O)Nc1ccccn1)OCC | 58.5%
82 | CCOP(=O)(CC(=O)Nc1ccon1)OCC | 11.7%
83 | CCOP(=O)(CCC(=O)Nc1nc(C)c(C(C)=O)s1)OCC | 0.3%
84 | O=C(CCP(=O)(O)O)NCc1ccco1 | 0.3%
85 | O=C(CCP(=O)(O)O)Nc1ccon1 | 0.2%
86 | CCOP(=O)(CCC(=O)Nc1nccs1)OCC | 0.1%
87 | O=C(CCP(=O)(O)O)Nc1nccs1 | 0.2%

test system: Escherichia coli; assay: Activation of Escherichia coli DXR using DOXP as substrate assessed as conversion of NADPH to NADP at 250 uM preincubated for 5 mins

Row | Activity | Structure (SMILES)
88 | Active | CCOP(=O)(CCCCC(=O)Nc1cccc(O)c1)OCC
89 | Active | O=C(CCCCP(=O)(O)O)Nc1cccc(O)c1
90 | Active | CCOP(=O)(CCCC(=O)Nc1cccc(Br)c1)OCC
91 | Active | COc1cccc(NC(=O)CCP(=O)(O)O)c1
92 | Active | O=C(CCCCP(=O)(O)O)Nc1cccc(Br)c1
93 | Active | COc1cccc(NC(=O)CCCCP(=O)(O)O)c1
94 | Active | CCOP(=O)(CCCCC(=O)Nc1cccc(OC)c1)OCC
